The values that follow come from patent US20030206932A1, “Novel topical compositions” (priority 1994, published 2003).

A short description of the series: Solubility parameter δ estimated from tabulated molecular substituent constants (Fedors). The following applies: difference to the solubility parameter of retinol. The source says: Solubility attributes of two or more materials with respect to each other are generally reflected in the “solubility parameter”, δ, which is expressed in the units (cal/cm^3)^1/2.
The value of the solubility parameter can be estimated from tabulated molecular substituent constants such as those described by Fedors. These substituent constants can be found in Solubility and Related Properties by Kenneth C. […] Generally, according to Textbook of Polymer Science, 2nd Ed., Billmeyer, solubility can be expected if the difference of the solubility parameters of two materials is less than about 2 units.
Consider `CC1CC(OC(=O)c2ccccc2O)CC(C)(C)C1` (stereo not drawn) [Homomenthyl Salicylate], for which the “δN − δRETINOL” value is reported as 1.14 (cal/cm^3)^1/2.
`CC1CCC(C(C)C)C(OC(=O)c2ccccc2N)C1` (stereo not drawn) [Menthyl Anthranilate]: the “δN − δRETINOL” value was 0.13 (cal/cm^3)^1/2.
As for `CCCCC(CC)COC(=O)C(C#N)=C(c1ccccc1)c1ccccc1` (stereo not drawn) [Octocrylene], the “δN − δRETINOL” value was 0.74 (cal/cm^3)^1/2.
Consider `CCCCC(CC)COC(=O)c1ccc(N(C)C)cc1` (stereo not drawn) [Octyl Dimethyl PABA], for which the “δN − δRETINOL” value is reported as −0.33 (cal/cm^3)^1/2.
For the molecule `CCCCC(CC)COC(=O)C=Cc1ccc(OC)cc1` (stereo not drawn) [Octyl Methoxy Cinnamate], the “δN − δRETINOL” value is −0.29 (cal/cm^3)^1/2.
On to DEA Methoxysalicylate, for which the “δN − δRETINOL” value was 2.94 (cal/cm^3)^1/2.
